# Measured values reported in patent US20250066413A1, “COMPOSITIONS FOR TREATMENT OF INFLAMMATION” (Metro International Biotech, LLC, priority 2022, published 2025).
# Legend:
# Assay type in all cases: cell-based
# [1] = system: AML12 Cells; assay: NAD Elevation Assay (NAD Cellular Assay), AML12 cells; conditions: at 0.4-2 mM compound
# Protocol: (§1) Compounds were tested in an NAD Cellular Assay according to the following protocol. Jurkat cells (50,000 per in 100 microliters of RPMI media) were added to wells of a 96 well, conical bottomed plate. The cells were allowed to recover for 3 h in culture. A 16 microliter aliquot of a 100 mM compound stock solution was diluted with 784 microliters of medium and 10% FBS to give 800 microliters of a 2 mM compound treatment solution. The compound treatment solution was added to the cells for a final concentration of 1 mM compound (n=6 wells for each compound.) As a parallel control, nicotinamide mononucleotide (NMN) was added to cells at a final concentration of 2 mM (n=6). The plates were incubated for 24 hours, then spun at 1000 rpm for 10 min. The medium was removed, then the cells were washed with fresh PBS and spun again. […] The NAD concentration in each well was determined using a commercially available assay according to the kit instructions (e.g. Promega NAD/NADH-Glo™ Assay.) The Pierce BCA protein assay was run according to the kit instructions (e.g. ThermoScientific Catalog number 23225). […]
# (§2) Assays with other cell types were run similarly, using the appropriate compound and NMN dilutions. Cell counts were adjusted as necessary to provide a signal within the reading range of the protein and NAD assay kits.
# [2] = system: HEPG2 Cells; assay: NAD Elevation Assay (NAD Cellular Assay), HEPG2 cells
# Protocol: (§3) Compounds were tested in an NAD Cellular Assay according to the following protocol. Jurkat cells (50,000 per in 100 microliters of RPMI media) were added to wells of a 96 well, conical bottomed plate. The cells were allowed to recover for 3 h in culture. A 16 microliter aliquot of a 100 mM compound stock solution was diluted with 784 microliters of medium and 10% FBS to give 800 microliters of a 2 mM compound treatment solution. The compound treatment solution was added to the cells for a final concentration of 1 mM compound (n=6 wells for each compound.) As a parallel control, nicotinamide mononucleotide (NMN) was added to cells at a final concentration of 2 mM (n=6). The plates were incubated for 24 hours, then spun at 1000 rpm for 10 min. The medium was removed, then the cells were washed with fresh PBS and spun again. The PBS medium was removed, then the cells were washed one more time with PBS and spun. The liquid was removed from each well via pipette, avoiding touching the cell pellet. The cells were lysed with 75 microliters of 0.5% DTAB. 25 microliters of the lysate was added to each of two flat bottomed plates. One plate was used for a BCA protein assay (clear), and the other plate was used for the NAD assay (clear bottom, white walled). The NAD concentration in each well was determined using a commercially available assay according to the kit instructions (e.g. Promega NAD/NADH-Glo™ Assay.) The Pierce BCA protein assay was run according to the kit instructions (e.g. ThermoScientific Catalog number 23225). NAD levels were normalized to total protein and reported as a multiple of the NAD level in untreated cells.
# as §2
# [3] = system: NDF Cells; assay: NAD Elevation Assay (NAD Cellular Assay), NDF cells; conditions: 0.25 mM compound
# Protocol: as §3, §2
# [4] = system: Jurkat cells; assay: NAD Elevation Assay (NAD Cellular Assay), Jurkat cells; conditions: 1 mM compound, 24 hours
# Protocol: as §1, with “again. The PBS medium was removed, then the cells were washed one more time with PBS and spun. The liquid was removed from each well via pipette, avoiding touching the cell pellet. The cells were lysed with 75 microliters of 0.5% DTAB.” for “again.”
smiles,measurement,setting,value
"Cn1cnc2c1c(=O)n(CC(=O)OCCCOC(=O)c1ccc[n+]([C@@H]3O[C@H](CO)[C@@H](O)[C@H]3O)c1)c(=O)n2C.O=S(=O)([O-])C(F)(F)F [Compound 1, 1-((2R,3R,4S,5R)-3,4-dihydroxy-5-(hydroxymethyl)tetrahydrofuran-2-yl)-3-((3-(2-(3,7-dimethyl-2,6-dioxo-2,3,6,7-tetrahydro-1H-purin-1-yl)acetoxy)propoxy)carbonyl)pyridin-1-ium trifluoromethanesulfonate]",NAD Elevation Assay,[1],Active at 0.4-2
"Cn1cnc2c1c(=O)n(CCOC(=O)c1ccc[n+]([C@@H]3O[C@H](COP(=O)([O-])O)[C@@H](O)[C@H]3O)c1)c(=O)n2C [Compound 4, ((2R,3S,4R,5R)-5-(3-((2-(3,7-dimethyl-2,6-dioxo-2,3,6,7-tetrahydro-1H-purin-1-yl)ethoxy)carbonyl)pyridin-1-ium-1-yl)-3,4-dihydroxytetrahydrofuran-2-yl)methyl hydrogen phosphate]","NAD Elevation Assay (NAD level normalized to total protein, multiple of the NAD level in untreated cells)",[2]; 0.1 mM compound,2.1x @0.1
"CCCn1cnc2c1c(=O)n(CCOC(=O)c1ccc[n+]([C@@H]3O[C@H](COP(=O)([O-])O)[C@@H](O)[C@H]3O)c1)c(=O)n2C [Compound 7P, ((2R,3S,4R,5R)-3,4-dihydroxy-5-(3-((2-(3-methyl-2,6-dioxo-7-propyl-2,3,6,7-tetrahydro-1H-purin-1-yl)ethoxy)carbonyl)pyridin-1-ium-1-yl)tetrahydrofuran-2-yl)methyl hydrogen phosphate]","NAD Elevation Assay (NAD level normalized to total protein, multiple of the NAD level in untreated cells)",[3],1.9x @0.25
"CCn1c(=O)c2c(ncn2CCOC(=O)c2ccc[n+]([C@@H]3O[C@H](COP(=O)([O-])O)[C@@H](O)[C@H]3O)c2)n(CC)c1=O [Compound 11P, ((2R,3S,4R,5R)-5-(3-((2-(1,3-diethyl-2,6-dioxo-1,2,3,6-tetrahydro-7H-purin-7-yl)ethoxy)carbonyl)pyridin-1-ium-1-yl)-3,4-dihydroxytetrahydrofuran-2-yl)methyl hydrogen phosphate]","NAD Elevation Assay (NAD level normalized to total protein, multiple of the NAD level in untreated cells)",[2]; 2 mM compound,1.3x @2
"Cn1cnc2c1c(=O)n(CCNC(=O)c1ccc[n+]([C@@H]3O[C@H](COP(=O)([O-])O)[C@@H](O)[C@H]3O)c1)c(=O)n2C [Compound 9P, ((2R,3S,4R,5R)-5-(3-((2-(3,7-dimethyl-2,6-dioxo-2,3,6,7-tetrahydro-1H-purin-1-yl)ethyl)carbamoyl)pyridin-1-ium-1-yl)-3,4-dihydroxytetrahydrofuran-2-yl)methyl hydrogen phosphate]","NAD Elevation Assay (NAD level normalized to total protein, multiple of the NAD level in untreated cells)",[2]; 0.25 mM compound,1.9x @0.25
"Cn1cnc2c1c(=O)n(CCCOC(=O)c1ccc[n+]([C@@H]3O[C@H](COP(=O)([O-])O)[C@@H](O)[C@H]3O)c1)c(=O)n2C [Compound 5P, ((2R,3S,4R,5R)-5-(3-((3-(3,7-dimethyl-2,6-dioxo-2,3,6,7-tetrahydro-1H-purin-1-yl)propoxy)carbonyl)pyridin-1-ium-1-yl)-3,4-dihydroxytetrahydrofuran-2-yl)methyl hydrogen phosphate]","NAD Elevation Assay (NAD level normalized to total protein, multiple of the NAD level in untreated cells)",[3],2.2x @0.25
"Cn1c(=O)c2c(ncn2CCOC(=O)c2ccc[n+]([C@@H]3O[C@H](CO)[C@@H](O)[C@H]3O)c2)n(C)c1=O.O=S(=O)([O-])C(F)(F)F [Compound 2, 1-((2R,3R,4S,5R)-3,4-dihydroxy-5-(hydroxymethyl)tetrahydrofuran-2-yl)-3-((2-(1,3-dimethyl-2,6-dioxo-1,2,3,6-tetrahydro-7H-purin-7-yl)ethoxy)carbonyl)pyridin-1-ium trifluoromethanesulfonate]","NAD Elevation Assay (NAD level normalized to total protein, multiple of the NAD level in untreated cells)",[4],2.9x @1
"Cn1c(=O)c2c(ncn2CCOC(=O)c2ccc[n+]([C@@H]3O[C@H](COP(=O)([O-])O)[C@@H](O)[C@H]3O)c2)n(C)c1=O [Compound 2P, ((2R,3S,4R,5R)-5-(3-((2-(1,3-dimethyl-2,6-dioxo-1,2,3,6-tetrahydro-7H-purin-7-yl)ethoxy)carbonyl)pyridin-1-ium-1-yl)-3,4-dihydroxytetrahydrofuran-2-yl)methyl hydrogen phosphate]","NAD Elevation Assay (NAD level normalized to total protein, multiple of the NAD level in untreated cells)",[2]; 2 mM compound,1.6x @2
"Cn1c(=O)c2c(ncn2CC(=O)OCCCOC(=O)c2ccc[n+]([C@@H]3O[C@H](COP(=O)([O-])O)[C@@H](O)[C@H]3O)c2)n(C)c1=O [Compound 6P, ((2R,3S,4R,5R)-5-(3-((3-(2-(1,3-dimethyl-2,6-dioxo-1,2,3,6-tetrahydro-7H-purin-7-yl)acetoxy)propoxy)carbonyl)pyridin-1-ium-1-yl)-3,4-dihydroxytetrahydrofuran-2-yl)methyl hydrogen phosphate]","NAD Elevation Assay (NAD level normalized to total protein, multiple of the NAD level in untreated cells)",[3],2.0x @0.25
"Cn1cnc2c1c(=O)n(CCOC(=O)c1ccc[n+]([C@@H]3O[C@H](CO)[C@@H](O)[C@H]3O)c1)c(=O)n2C.O=S(=O)([O-])C(F)(F)F [Compound 3, 1-((2R,3R,4S,5R)-3,4-dihydroxy-5-(hydroxymethyl)tetrahydrofuran-2-yl)-3-((2-(3,7-dimethyl-2,6-dioxo-2,3,6,7-tetrahydro-1H-purin-1-yl)ethoxy)carbonyl)pyridin-1-ium trifluoromethanesulfonate]",NAD Elevation Assay,[1],Active at 0.4-2
